Laboratory results: US20080076788A1, “SOLID FORMS OF (3'-CHLOROBIPHENYL-4-YL)(1-(PYRIMIDIN-2-YL)PIPERIDIN-4-YL)METHANONE AND METHODS OF THEIR USE” (priority 2006, published 2008)

Columns and labels:
mice = assay: Learning and memory in mice after administration of the compound; assay type: in vivo; details: administered to mice
[1] = target: T1, Na^+-dependent proline transporter (Homo sapiens, UniProt Q99884); details: statement in words, refers to U.S. patent application Ser. Nos. 11/433,057 and 11/433,626; cited from earlier work
T1 sequence (Q99884 1-636): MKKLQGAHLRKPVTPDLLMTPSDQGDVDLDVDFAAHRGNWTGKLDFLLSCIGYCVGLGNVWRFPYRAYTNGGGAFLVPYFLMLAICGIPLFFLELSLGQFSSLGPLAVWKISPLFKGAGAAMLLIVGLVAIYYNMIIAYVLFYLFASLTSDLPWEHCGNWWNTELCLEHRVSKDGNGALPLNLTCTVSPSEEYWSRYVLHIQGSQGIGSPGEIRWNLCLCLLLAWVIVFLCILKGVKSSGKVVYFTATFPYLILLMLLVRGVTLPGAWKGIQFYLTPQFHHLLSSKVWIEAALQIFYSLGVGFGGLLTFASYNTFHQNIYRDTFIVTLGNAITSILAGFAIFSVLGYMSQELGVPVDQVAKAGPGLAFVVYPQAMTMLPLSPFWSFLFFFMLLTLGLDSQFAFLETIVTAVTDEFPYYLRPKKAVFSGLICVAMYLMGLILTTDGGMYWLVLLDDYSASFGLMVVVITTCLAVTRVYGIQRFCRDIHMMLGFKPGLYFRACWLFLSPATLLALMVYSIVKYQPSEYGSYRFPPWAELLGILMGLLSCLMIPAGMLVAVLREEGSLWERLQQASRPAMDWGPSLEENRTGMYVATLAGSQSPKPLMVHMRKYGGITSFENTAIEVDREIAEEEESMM

- melting point: ~ 117 °C
Structure (SMILES): O=C(c1ccc(-c2cccc(Cl)c2)cc1)C1CCN(c2ncccn2)CC1 [(3′-chlorobiphenyl-4-yl)(1-(pyrimidin-2-yl)piperidin-4-yl)methanone]
- effect on learning and memory (mice): increase learning and memory
- inhibition of the Na+-dependent proline transporter [1]: inhibitor
